Source: patent publication US4471115A, “Water soluble derivatives of cephalex and process for their preparation” (Neopharmed S.p.A., priority 1980, dated 1984)
Where a name gives a salt, the structure may show the parent alone.

Tests used:
[1] = Solubility; format: physicochemical; conditions: for Solubility in alcohols: ethanol / absolute alcohols
[2] = pH of the water solution; format: physicochemical; conditions: water solution obtained in the preparation
Procedure: After about 10 minutes of stirring under the above conditions, a 50% solution of 14 g of lysine base was slowly added. The reaction mixture was little by little solubilized and the pH final value of the resulting solution was 7.5. The volume of the obtained solution was brought to the end value of 150 mls by adding cold distilled water. It was then sterile filtered and frozen in a prefreezer at -70° C. and finally lyophilized.

[3] = Cephalexin microbiological title
[4] = in vivo, po
[5] = Toxicity in the mouse (LD50); conditions: in vivo
Text: (§1) Pharmacological and clinical tests have been carried out with the compounds of the invention and the results related to the lysine salt of 2-N-methylolcephalexin are hereinafter reported for illustrative purpose.

[6] = Toxicity in the rat (LD50); conditions: in vivo, po, per os
Text: as §1

[7] = clinical; conditions: human, in vivo, po
[8] = well known; cited from earlier work

Structure (SMILES) | Solubility in alcohols [1] | Solubility in water [1] | Final pH of the resulting solution [2] | Cephalexin microbiological title [3] | other results
CC1=C(C(=O)O)N2C(=O)[C@@H](NC(=O)[C@H](NCO)c3ccccc3)[C@H]2SC1 [Example 2, Sodium salt of 2-N-methylol-cephalexin] | little soluble in ethanol and absolute alcohols | highly water soluble | 7.1 | 99 to 102 % of theoretical value | 
CC1=C(C(=O)O)N2C(=O)[C@@H](NC(=O)[C@H](N)c3ccccc3)[C@H]2SC1 [substance B, cephalexin monohydrated] |  |  |  |  | Presence in the blood stream [4]: higher; Time after administration at which actives concentrations are detected [4]: more than 6 hours
CC1=C(C(=O)O)N2C(=O)[C@@H](NC(=O)[C@H](NCO)c3ccccc3)[C@H]2SC1 [Example 1, Lysine salt of 2-N-methylol-cephalexin] | little soluble in absoluble alcohols | cold soluble in water | 7.5 | 99 to 100 % of theoretical value | LD50 ([5]; ip, intraperitoneal administration): 3100 mg/kg; LD50 ([5]; oral administration): > 4000 mg/kg; LD50 [6]: > 4000 mg/kg; dose excreted at 24 h [7]: 87%
CC1=C(C(=O)O)N2C(=O)[C@@H](NC(=O)[C@H](N)c3ccccc3)[C@H]2SC1 [cephalexin, 7-(D-2-amino-2-phenylacetamido)-3-methyl-Δ^3-4-carboxylic acid] |  |  |  |  | Antibiotic utility [8]: wide spectrum antibiotic
